Measurements reported in patent US12552765B2, “Small molecule modulators of pantothenate kinases” (ST. JUDE CHILDREN'S RESEARCH HOSPITAL, INC., priority 2016, dated 2026).

Test system: diabetic ob/ob mice
Assay: Blood glucose in adult male diabetic ob/ob mice
Assay type: in vivo
Conditions: 10 mg/kg orally at 12-hr intervals, 5 doses, pantothenate-deficient chow, in 30% Captisol; non-diabetic range 120±20 mg/dL
Experimental: Compound was administered orally at 12-hr intervals for a total of 5 doses starting at T=0 hr. Blood glucose from the tail vein was measured just prior to each administration. Compound was formulated in 30% Captisol (o); 30% Captisol only (•).

Structure (SMILES) | blood glucose level
CC(C)c1ccc(CC(=O)N2CCN(c3ccc(C#N)nn3)CC2)cc1 [6-(4-(2-(4-isopropylphenyl)acetyl)piperazin-1-yl)pyridazine-3-carbonitrile] | reduces the blood glucose level to values within the range of non-diabetic mice

Molecular target: hPanK3 (Homo sapiens, UniProt Q9H999)
Sequence (Q9H999 whole entry): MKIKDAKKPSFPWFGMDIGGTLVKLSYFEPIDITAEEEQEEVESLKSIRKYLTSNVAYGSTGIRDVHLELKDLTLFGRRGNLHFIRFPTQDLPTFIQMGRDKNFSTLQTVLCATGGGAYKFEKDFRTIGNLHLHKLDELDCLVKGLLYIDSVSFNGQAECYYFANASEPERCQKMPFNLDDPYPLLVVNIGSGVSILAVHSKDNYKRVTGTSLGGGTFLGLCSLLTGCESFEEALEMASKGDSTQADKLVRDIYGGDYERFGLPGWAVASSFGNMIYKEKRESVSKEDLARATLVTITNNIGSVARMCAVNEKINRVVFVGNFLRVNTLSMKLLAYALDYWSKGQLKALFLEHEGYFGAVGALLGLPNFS
Assay: Inhibition of PanK kinase activity (phosphorylation of pantothenate, purified protein)
Assay type: biochemical
Conditions: not given

Structure (SMILES) | IC50
N#Cc1ccc(N2CCN(C(=O)NC3CCCCC3)CC2)nc1 [Compound 19] | > 10000 nM
CC(C)(C)NC(=O)N1CCN(c2ccc(C#N)cn2)CC1 [Compound 20] | > 10000 nM
CCCCCCCCNC(=O)N1CCN(c2ccc(C#N)cn2)CC1 [Compound 21] | > 10000 nM
CC(C)NC(=O)N1CCN(c2ccc(C#N)cn2)CC1 [Compound 22] | > 10000 nM
Cc1ccc(CNC(=O)N2CCN(c3ccc(C#N)cn3)CC2)cc1 [Compound 24] | > 10000 nM
N#Cc1ccc(N2CCN(C(=O)NCc3ccco3)CC2)nc1 [Compound 25] | > 10000 nM
CC(C)c1cc(NC(=O)N2CCN(c3ccc(C#N)cn3)CC2)on1 [Compound 27] | > 10000 nM

Same assay, conditions: Morrison Ki fit

Structure (SMILES) | Ki
CCC(C)c1ccc(NC(=O)N2CCN(c3ccc(C#N)nn3)CC2)cc1 (centres unmarked) [Compound 66] | 7.8 nM
CC(C)(C)c1ccc(CC(=O)N2CCN(c3ccc(C#N)nn3)CC2)cc1 [Compound 73] | 0.97 nM
CC(C)(C)c1ccc(CC(=O)N2CCN(c3ccc(Cl)nn3)CC2)cc1 [Compound 74] | 1.8 nM
CC(C)c1ccc(OC(=O)N2CCN(c3ccc(Cl)nn3)CC2)cc1 [Compound 76] | 1.8 nM
CC(C)(C)c1ccc(C(F)(F)C(=O)N2CCN(c3ccc(C#N)nn3)CC2)cc1 [Compound 77] | 20.8 nM
Cc1cc(OC(=O)N2CCN(c3ccc(C#N)nn3)CC2)ccc1C(C)C [Compound 80] | 55.7 nM
CC(C)c1ccc(CC(=O)N2CCN(c3ccc(C#N)nn3)CC2)nc1 [Compound 82] | 62.5 nM
CC(C)c1ccc(CC(=O)N2CC[C@@H](Nc3ccc(C#N)nn3)C2)cc1 [Compound 84] | 9.1 nM
CC(C)c1ccc(CC(=O)N[C@H]2CCN(c3ccc(C#N)nn3)C2)cc1 [Compound 85] | 7.1 nM
CC(C)c1ccc(CC(=O)N[C@@H]2CCN(c3ccc(C#N)nn3)C2)cc1 [Compound 86] | 26.6 nM
CC(C)c1ccc(CC(=O)N[C@H]2CN(c3ccc(C#N)nn3)C[C@@H]2O)cc1 [Compound 87] | 12.3 nM
CC(C)c1ccc(NC(=O)N[C@H]2CCN(c3ccc(C#N)nn3)C2)cc1 [Compound 88] | 36.3 nM
CC(C)c1ccc(CC(=O)NCCNc2ccc(C#N)nn2)cc1 [Compound 90] | 28.3 nM
CC(C)c1ccc(CC(=O)N[C@@H]2CN(c3ccc(C#N)nn3)C[C@H]2O)cc1 [Compound 91] | 35 nM
CC(C)c1ccc(CC(=O)N[C@@H]2CN(c3ccc(C#N)nn3)C[C@@H]2O)cc1 [Compound 92] | 40.8 nM
CC(C)c1ccc(CC(=O)N[C@H]2CCN(c3ccc(C#N)nn3)C2)cc1F [Compound 94] | 1.1 nM
CC(C)c1ccc(CC(=O)N[C@H]2CN(c3ccc(C#N)nn3)C[C@@H]2O)cc1F [Compound 95] | 51 nM
CC(C)c1ccc(CC(=O)N[C@H]2CCN(c3ccc(C#N)nn3)C2)c(F)c1 [Compound 100] | 1.5 nM
CC(C)c1ccc(CC(=O)N[C@@H]2CN(c3ccc(C#N)nn3)C[C@H]2O)cc1F [Compound 105] | 44.8 nM
CC(C)c1ccc(CC(=O)N[C@H]2CCN(c3ccc(C#N)nn3)C2)cn1 [Compound 106] | 5.9 nM
CC(C)c1ccc(CC(=O)N[C@@H]2CN(c3ccc(C#N)nn3)C[C@H]2O)c(F)c1 [Compound 107] | 21.1 nM
CC(C)c1ccc(N(C)C(=O)N2CCN(c3ccc(C#N)nn3)CC2)cc1 [Compound 108] | 14.1 nM
CC(C)c1ccc(OC(=O)N2CCN(c3cnc(C#N)cn3)CC2)cc1 [Compound 110] | 33.7 nM
CC(C)c1ccc(NC(=O)N2CCN(c3cnc(Cl)cn3)CC2)cc1 [Compound 113] | 21 nM

Structure (SMILES) | Ki
CC(C)c1ccc(CC(=O)N2CCN(c3ncc(Cl)nc3N)CC2)cc1 [Compound 116] | 12.5 nM
CC(C)c1ccc(CC(=O)NC2CCN(c3ccc(C#N)nn3)CC2)cc1 [Compound 118] | 5 nM
CC(C)c1ccc(CC(=O)N2CCN(c3ccc(C#N)nn3)CC2)s1 [Compound 119] | 3.3 nM
CC(C)c1ccc(CC(=O)N2CCN(c3ccc([N+](=O)[O-])nc3)CC2)cc1 [Compound 120] | 0.64 nM
CC(C)c1ccc(CC(=O)N2CCN(c3ccc(C#N)nn3)C[C@H]2C)cc1 [Compound 121] | 1.4 nM
CC(C)c1ccc(CC(=O)N2CCN(c3cnc(Cl)cn3)CC2)s1 [Compound 122] | 4.1 nM
CC(C)c1ccc(CC(=O)N2CCN(c3ccc(C#N)nn3)[C@H](C)C2)cc1 [Compound 123] | 0.13 nM
CC(C)c1ccc(CC(=O)N2CCN(c3ccc(C#N)nn3)C[C@@H]2C)cc1 [Compound 124] | 1.1 nM
CC(C)c1ccc(CC(=O)N2CCN(c3ccc(C#N)nn3)[C@@H](C)C2)cc1 [Compound 126] | 0.09 nM
CC(C)c1ccc(CC(=O)N2CCN(c3ccc(C#N)nn3)[C@@H](C)C2)s1 [Compound 128] | 1.3 nM
CSc1ccc(CC(=O)N2CCN(c3ccc(C#N)nn3)[C@H](C)C2)cc1 [Compound 129] | 22.4 nM
CC(C)c1ccc(CC(=O)N2CCN(c3ccc(C#N)nn3)[C@H](C)C2)cn1 [Compound 131] | 9 nM
CC(C)c1ccc(CC(=O)N2CCN(c3ccc(C#N)nn3)[C@@H](C)C2)cn1 [Compound 132] | 12.6 nM
CC(C)c1ccc(CC(=O)N2CCN(c3ccc(Cl)nn3)[C@@H](C)C2)cn1 [Compound 133] | 9.7 nM
CC(C)c1ccc(CC(=O)N2CCN(c3ccc(Cl)nn3)[C@H](C)C2)cn1 [Compound 134] | 10.6 nM
CSc1cccc(CC(=O)N2CCN(c3ccc(C#N)nn3)[C@H](C)C2)c1 [Compound 135] | 38 nM
CC(C)c1ccc(CC(=O)N2CCN(c3ccc(C#N)nn3)C(C)(C)C2)cc1 [Compound 136] | 2.4 nM
CC(C)c1ccc(CC(=O)N2C[C@@H](C)N(c3ccc(C#N)nn3)[C@@H](C)C2)cc1 [Compound 137] | 0.27 nM
CC(C)c1ccc(OC(=O)N2CCN(c3ccc(C#N)nn3)[C@@H](C)C2)cc1 [Compound 138] | 7.6 nM
CC(C)c1ccc(OC(=O)N2CCN(c3ccc(C#N)nn3)[C@H](C)C2)cc1 [Compound 139] | 4.7 nM
C[C@H]1CN(C(=O)Cc2ccc(C(C)(C)C)cc2)CCN1c1ccc(C#N)nn1 [Compound 140] | 1 nM
C[C@@H]1CN(C(=O)Cc2ccc(C(C)(C)C)cc2)CCN1c1ccc(C#N)nn1 [Compound 141] | 1.7 nM
CC(c1ccc(CC(=O)N2CCN(c3ccc(C#N)nn3)[C@@H](C)C2)cc1)C(F)(F)F (some centres unmarked) [Compound 144] | 2.5 nM
CC(c1ccc(CC(=O)N2CCN(c3ccc(C#N)nn3)[C@H](C)C2)cc1)C(F)(F)F (some centres unmarked) [Compound 145] | 1.5 nM
